Laboratory results from publication PMC9896412, “The role of invariant surface glycoprotein 75 in xenobiotic acquisition by African trypanosomes” (Microbial Cell, 2023).

Assays:
[1] = molecular target: T1, invariant surface glycoprotein 75 (ISG75) (Trypanosoma brucei, UniProt Q1WK95); experiment: biochemical
[2] = molecular target: T1, invariant surface glycoprotein 75 (ISG75); experiment: ITC (tag-free protein from S2 cells); assay type: binding

Q: `Cc1ccc(C(=O)Nc2ccc(S(=O)(=O)O)c3cc(S(=O)(=O)O)cc(S(=O)(=O)O)c23)cc1NC(=O)c1cccc(NC(=O)Nc2cccc(C(=O)Nc3cc(C(=O)Nc4ccc(S(=O)(=O)O)c5cc(S(=O)(=O)O)cc(S(=O)(=O)O)c45)ccc3C)c2)c1` [suramin] was tested. Which Kd [1] did it give?
A: 3200 nM

Q: With `Cc1cc(-c2ccc(/N=N/c3c(S(=O)(=O)O)cc4cc(S(=O)(=O)O)cc(N)c4c3O)c(C)c2)ccc1/N=N/c1c(S(=O)(=O)O)cc2cc(S(=O)(=O)O)cc(N)c2c1O` [trypan blue] as the compound, how does the Kd [2] read?
A: 600 nM
